Reference: patent publication US20230295106A1 (priority 2019, published 2023)
Where two headings read alike, the source gives them in different places.

Experiments:
[1] = system: rat cortical neurons; experiment: Neurite outgrowth in primary neuronal cultures assay; format: cell-based; parameters: key: A: Statistically significant mean increase as a percent of DMSO control at 10 μM or less; B: No statistically significant mean increase as a percent of DMSO control at 10 μM or less; details: 72 h, vs DMSO control, at 10 μM or less
Source text: Neurite Outgrowth in Primary Neuronal Cultures Assay. Changes in the pattern of neurite outgrowth have been implicated in psychiatric and neurodegenerative disorders as well as traumatic injuries. The discovery of new compounds that can positively affect neuritogenesis are important for developing new therapeutics for neurological diseases. Measurement of neurite outgrowth of rat cortical neurons using an automated image-based assay was used to determine the neuroplastic effects of the compounds of the present invention. The neurite outgrowth assay was performed at Neurofit SAS (France) as described below.
Pregnant Wistar rats (Janvier; France) were used for the study. They were delivered 6 days before their use. Upon arrival at Neurofit animal facility, they were housed one per cage and maintained in a room with controlled temperature (21-22° C.) and a reversed light-dark cycle (12 h/12 h; lights on: 17:30-05:30; lights off: 05:30-17:30) with food and water available ad libitum.
Female Wistar rats of 17 days gestation were killed by cervical dislocation and the fetuses were removed from the uterus. Their brains were placed in ice-cold medium of Leibovitz (L15, Gibco, Fisher bioblock, France). Cortices were dissected and meninges were carefully removed. The cortical neurons were dissociated by trypsinization for 30 min at 37° C. (trypsin-EDTA, Gibco) in presence of 0.1 mg/ml DNAse I (Roche, France). The reaction was stopped by addition of Dulbecco's Modified Eagle Medium (DMEM; Gibco) with 10% of fetal bovine serum (FBS; Gibco). The suspension was triturated with a 10-ml pipette and using a needle syringe 21 G and centrifuged at 350×g for 10 min at room temperature. The pellet of dissociated cells was resuspended in a medium consisting of Neurobasal (Gibco) supplemented with 2% B27 supplement (Gibco), 0.5 mM L-Glutamine (Gibco), an antibiotic-antimicotic mixture. Viable cells were counted in a Neubauer cytometer using the trypan blue exclusion test (Sigma). Cells were seeded at a density of 10000 cells per well in 96-well plate (Costar) precoated with poly-L-lysine. Test compound at different concentrations were added to the cultures. Donepezil (positive control) was tested at 250 nM.
After 72 h (3 days) of plating, cultures were fixed with paraformaldehyde in PBS (4%, Sigma) for 30 min at 4° C. Then, cells were successively permeabilized with 0.1% Triton X100 for 30 min, saturated with PBS containing 3% of BSA and were incubated 1 h with anti-beta III tubulin antibody (Sigma) at 1/10000 in PBS containing 0.5% of BSA. Cells were washed three times with PBS containing 0.5% of BSA, and they were incubated 1 h with goat anti-mouse antibody coupled with AF488 (Invitrogen A11001) diluted at 1/1000 in PBS containing 0.5% of BSA. Finally, nuclei were staining with DAPI 1 mg/ml at 1/1000 in PBS containing 0.5% of BSA. After rinsing with PBS, the plate was filmed and neurite networks were examined and analyzed using High-Content Screening (CellInsight, Thermo Scientific). The average number of neurites per neuron and the average total length of neurites per neuron were the main parameters analyzed. Analysis of data was performed using analysis of variance (ANOVA). The Fisher's Protected Least Significant Difference test was used for multiple comparisons. A p value <0.05 was considered significant. The software used is StatView 5.0 from SAS Institut.

[2] = biological target: T1, 5-HT2A (Homo sapiens, UniProt P28223); experiment: Serotonin 5-HT2A in vitro cellular IPOne agonism assay (HTRF); format: cell-based; parameters: host or cells: CHO-K1
T1 sequence (P28223 whole entry): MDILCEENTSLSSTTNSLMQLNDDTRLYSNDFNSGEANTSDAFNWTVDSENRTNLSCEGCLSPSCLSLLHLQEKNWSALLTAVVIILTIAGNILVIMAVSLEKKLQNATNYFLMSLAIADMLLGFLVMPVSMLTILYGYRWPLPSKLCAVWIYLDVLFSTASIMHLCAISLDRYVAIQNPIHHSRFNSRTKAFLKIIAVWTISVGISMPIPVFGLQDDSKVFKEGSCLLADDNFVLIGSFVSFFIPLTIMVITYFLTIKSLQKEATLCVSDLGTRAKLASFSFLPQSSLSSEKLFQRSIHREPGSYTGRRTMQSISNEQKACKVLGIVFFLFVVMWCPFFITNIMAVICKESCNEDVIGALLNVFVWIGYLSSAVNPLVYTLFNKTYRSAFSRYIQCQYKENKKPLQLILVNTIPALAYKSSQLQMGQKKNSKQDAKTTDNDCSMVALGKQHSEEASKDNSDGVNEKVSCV

[3] = biological target: T1, 5-HT2A; experiment: Serotonin 5-HT2A in vitro radioligand binding competition assay ([3H]-DOI); parameters: Epics Therapeutics S.A. (Belgium) FAST-0505B; host or cells: membrane extracts
[4] = 5-HT2A IPOne Agonism Activity, CHO-K1 cells, 60 min at 37° C.
[5] = 5-HT2A Radioligand Binding Activity, competition with [3H]-DOI, membrane extracts

| Structure (SMILES) | Increase in Neurite Length [1] | Increase in Neurite Number [1] | EC50 [2] [nM] | IC50 [3] [nM] | EC50 [2, 4] [nM] | IC50 [3, 5] [nM] | EC50 ([2]; read-out: 5-HT2A IPOne Agonism Activity, CHO-K1 cells, 60 min at 37° C.) [nM] | IC50 ([3]; read-out: 5-HT2A Radioligand Binding Activity, competition with [3H]-DOI, membrane extracts) [nM] |
| --- | --- | --- | --- | --- | --- | --- | --- | --- |
| CCN(CC)C1Cc2cccc3ccn(c23)C1 (stereo not shown) [Compound 16, N,N-diethyl-5,6-dihydro-4H-pyrrolo[3,2,1-]quinolin-5-amine] | A | A | 101 to 1000 | 101 to 1000 |  |  |  |  |
| CCN(CC)C(=O)[C@@H]1C=C(c2cccc(OC)c2)CN(C)C1 (single isomer, unassigned) [Compound 10, N,N-diethyl-5-(3-methoxyphenyl)-1-methyl-1,2,3,6-tetrahydropyridine-3-carboxamide] | A | A |  |  | 101 to 1000 | 101 to 1000 |  |  |
| CCN(CC)C(=O)[C@@H]1C=C(c2cc(OC)cc(OC)c2)CN(C)C1 (single isomer, unassigned) [Compound 5, 5-(3,5-dimethoxyphenyl)-N,N-diethyl-1-methyl-1,2,3,6-tetrahydropyridine-3-carboxamide] | A | A |  |  | 10 to 100 | 101 to 1000 |  |  |
| CCN(CC)C(=O)[C@@H]1C=C(c2ccccc2OC)CN(C)C1 (single isomer, unassigned) [Compound 7, N,N-diethyl-5-(2-methoxyphenyl)-1-methyl-1,2,3,6-tetrahydropyridine-3-carboxamide] | B | B |  |  | 10 to 100 | 10 to 100 |  |  |
| CCN(CC)C(=O)[C@@H]1C=C(c2cccc3[nH]ccc23)CN(C)C1 (single isomer, unassigned) [Compound 12, N,N-diethyl-5-(1H-indol-4-yl)-1-methyl-1,2,3,6-tetrahydropyridine-3-carboxamide] | A | A |  |  |  |  |  |  |
| CN(C)C1Cc2cccc3ccn(c23)C1 (single isomer, unassigned) [Compound 14, N,N-dimethyl-5,6-dihydro-4H-pyrrolo[3,2,1-ij]quinolin-5-amine] | A | A | > 10000 | 101 to 1000 |  |  |  |  |
| NC1Cc2cccc3ccn(c23)C1 (stereo not shown) [Compound 13, 5,6-dihydro-4H-pyrrolo[3,2,1-ij]quinolin-5-amine] | A | A | > 10000 | 1000 to 10000 |  |  |  |  |
| CCN(CC)C(=O)[C@@H]1C=C(c2cccc(OC)c2)CN(C)C1 (single isomer, unassigned) [Compound 9, N,N-diethyl-5-(3-methoxyphenyl)-1-methyl-1,2,3,6-tetrahydropyridine-3-carboxamide] | A | A |  |  | 10 to 100 | 10 to 100 |  |  |
| CCN(CC)C(=O)[C@@H]1C=C(c2cccc3[nH]ccc23)CN(C)C1 (single isomer, unassigned) [Compound 11, N,N-diethyl-5-(1H-indol-4-yl)-1-methyl-1,2,3,6-tetrahydropyridine-3-carboxamide] | A | A |  |  |  |  |  |  |
| CCN(CC)C(=O)[C@@H]1C=C(c2ccccc2OC)CN(C)C1 (single isomer, unassigned) [Compound 8, N,N-diethyl-5-(2-methoxyphenyl)-1-methyl-1,2,3,6-tetrahydropyridine-3-carboxamide] | A | A |  |  | 101 to 1000 | 101 to 1000 |  |  |
| NC1Cc2cc(Cl)cc3ccn(c23)C1 (stereo not shown) [Compound 21, 8-chloro-5,6-dihydro-4H-pyrrolo[3,2,1-ij]quinolin-5-amine] |  |  | 1000 to 10000 | 1000 to 10000 |  |  |  |  |
| CN(C)C1Cc2cccc3ccn(c23)C1 (single isomer, unassigned) [Compound 15, N,N-dimethyl-5,6-dihydro-4H-pyrrolo[3,2,1-ij]quinolin-5-amine] | B | B |  |  |  |  | > 10000 | 101 to 1000 |
| CCN(CC)C(=O)[C@@H]1C=C(c2cc(OC)cc(OC)c2)CN(C)C1 (single isomer, unassigned) [Compound 6, 5-(3,5-dimethoxyphenyl)-N,N-diethyl-1-methyl-1,2,3,6-tetrahydropyridine-3-carboxamide] | A | A |  |  | 101 to 1000 | 1000 to 10000 |  |  |
| COc1cc2c3c(ccn3CC(N)C2)c1 (stereo not shown) [Compound 25, 8-methoxy-5,6-dihydro-4H-pyrrolo[3,2,1-ij]quinolin-5-amine] |  |  | > 10000 | > 10000 |  |  |  |  |
| NC1Cc2c(F)ccc3ccn(c23)C1 (stereo not shown) [Compound 19, 7-fluoro-5,6-dihydro-4H-pyrrolo[3,2,1-ij]quinolin-5-amine] |  |  | > 10000 | > 10000 |  |  |  |  |
| NC1Cc2c(Cl)ccc3ccn(c23)C1 (stereo not shown) [Compound 23, 7-chloro-5,6-dihydro-4H-pyrrolo[3,2,1-ij]quinolin-5-amine] |  |  | 1000 to 10000 | 1000 to 10000 |  |  |  |  |
| NC1Cc2cccc3[nH]cc(c23)C1 (stereo not shown) [Compound 27, 1,3,4,5-tetrahydrobenzo[cd]indol-4-amine] | A | A | 1000 to 10000 | 1000 to 10000 |  |  |  |  |
| NC1Cc2cc(F)cc3ccn(c23)C1 (stereo not shown) [Compound 17, 8-fluoro-5,6-dihydro-4H-pyrrolo[3,2,1-ij]quinolin-5-amine] |  |  | > 10000 | 1000 to 10000 |  |  |  |  |
